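96-well plates; 48 h exposure; 5 concentrations. Endpoints by linear interpolation between flanking doses. Not reached: highest tested concentration assigned. Abbreviation: GI50, concentration required for 50% inhibition of growth.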 Activity calls are given as the source filed them. No stated cut-off is given here; in the data, active = GI50 up to about 1.1 µM and inactive = higher.
Tests used:
Assay in all cases: growth of human tumour cells (NCI), 48 h
OVCAR-8 = tested on: OVCAR-8
SK-MEL-5 = tested on: SK-MEL-5
UACC-62 = tested on: UACC-62
COLO 205 = tested on: COLO 205
UO-31 = tested on: UO-31
SN12C = tested on: SN12C
SK-MEL-28 = tested on: SK-MEL-28
SK-MEL-2 = tested on: SK-MEL-2
EKVX = tested on: EKVX
CAKI-1 = tested on: CAKI-1
SF-295 = tested on: SF-295
IGROV-1 = tested on: IGROV-1
NCI-H23 = tested on: NCI-H23
SW-620 = tested on: SW-620
UACC-257 = tested on: UACC-257
HT-29 = tested on: HT-29
U-251 = tested on: U-251
MOLT-4 = tested on: MOLT-4
HOP-92 = tested on: HOP-92
T47D = tested on: T47D

SMILES	GI50 (OVCAR-8)	GI50 (SK-MEL-5)	GI50 (UACC-62)	GI50 (COLO 205)	GI50 (UO-31)	GI50 (SN12C)	GI50 (SK-MEL-28)	GI50 (SK-MEL-2)	GI50 (EKVX)	GI50 (CAKI-1)	GI50 (SF-295)	GI50 (IGROV-1)	GI50 (NCI-H23)	GI50 (SW-620)	GI50 (UACC-257)	GI50 (HT-29)	GI50 (U-251)	GI50 (MOLT-4)	GI50 (HOP-92)	GI50 (T47D)
COC(=O)c1ccccc1/N=C(/NC1CCCCCC1)NS(=O)(=O)c1ccc(C)cc1	> 100 µM (inactive)	> 100 µM (inactive)	> 100 µM (inactive)	> 100 µM (inactive)	> 100 µM (inactive)	> 100 µM (inactive)	> 100 µM (inactive)	> 100 µM (inactive)	> 100 µM (inactive)	74.5 µM (inactive)	26.4 µM (inactive)	> 100 µM (inactive)	> 100 µM (inactive)	> 100 µM (inactive)	> 100 µM (inactive)	> 100 µM (inactive)	> 100 µM (inactive)	> 100 µM (inactive)	89.7 µM (inactive)	> 100 µM (inactive)
CC#CS(=O)(=O)c1ccccc1	3.02 µM (inactive)	2.81 µM (inactive)	3.24 µM (inactive)	11.2 µM (inactive)	1.86 µM (inactive)	6.32 µM (inactive)	3.13 µM (inactive)	14.2 µM (inactive)	18.6 µM (inactive)	1.04 µM (active)	3.56 µM (inactive)	11.9 µM (inactive)	5.2 µM (inactive)	3.78 µM (inactive)	2.88 µM (inactive)	3.67 µM (inactive)	12.9 µM (inactive)	0.253 µM (active)	2.51 µM (inactive)	2.33 µM (inactive)
NNC(=O)CCc1ccc2ccc3ccccc3c2c1	> 100 µM (inactive)	92.3 µM (inactive)	> 100 µM (inactive)	> 100 µM (inactive)	18.8 µM (inactive)	68.1 µM (inactive)	> 100 µM (inactive)	> 100 µM (inactive)	16.4 µM (inactive)	54.3 µM (inactive)	78.7 µM (inactive)	> 100 µM (inactive)	> 100 µM (inactive)	> 100 µM (inactive)	> 100 µM (inactive)	> 100 µM (inactive)	> 100 µM (inactive)	63.5 µM (inactive)	58.7 µM (inactive)	70.6 µM (inactive)
CN1c2ccccc2C(=O)NC12CCN(CCCC(=O)c1ccc(F)cc1)CC2	> 100 µM (inactive)	26.1 µM (inactive)	> 100 µM (inactive)	16.3 µM (inactive)	80.4 µM (inactive)	> 100 µM (inactive)	70.1 µM (inactive)	> 100 µM (inactive)	> 100 µM (inactive)	82.4 µM (inactive)	73.5 µM (inactive)	> 100 µM (inactive)	> 100 µM (inactive)	50.4 µM (inactive)	29 µM (inactive)	23.1 µM (inactive)	> 100 µM (inactive)	21.1 µM (inactive)	62.1 µM (inactive)	29 µM (inactive)
OC1(c2ccccc2)CC2CCC(C1)N2CCc1ccccc1 (stereo not given)	92.9 µM (inactive)	13.7 µM (inactive)	80.4 µM (inactive)	17.6 µM (inactive)	28.1 µM (inactive)	> 100 µM (inactive)	68.4 µM (inactive)	> 100 µM (inactive)	97.5 µM (inactive)	53.2 µM (inactive)	34.6 µM (inactive)	86.3 µM (inactive)	53.6 µM (inactive)	48.9 µM (inactive)	24.5 µM (inactive)	23.8 µM (inactive)	> 100 µM (inactive)	29.7 µM (inactive)	43.8 µM (inactive)	45 µM (inactive)
CC(C)NC(=O)CN1CCN(C2=C(Cl)C(=O)c3c(O)ccc(O)c3C2=O)CC1	0.861 µM (active)	2 µM (inactive)	1.73 µM (inactive)	1.31 µM (inactive)	1.03 µM (active)	1.68 µM (inactive)	1.66 µM (inactive)	1.49 µM (inactive)	3.72 µM (inactive)	2.17 µM (inactive)	7.1 µM (inactive)	2.39 µM (inactive)	1.03 µM (active)	0.546 µM (active)	1.79 µM (inactive)	1.26 µM (inactive)	3.31 µM (inactive)	0.36 µM (active)	2.24 µM (inactive)	1.91 µM (inactive)
NC(CCCCCCCCCCP(=O)(O)O)C(=O)O (stereo not given)	> 100 µM (inactive)	> 100 µM (inactive)	> 100 µM (inactive)	> 100 µM (inactive)	> 100 µM (inactive)	> 100 µM (inactive)	> 100 µM (inactive)	> 100 µM (inactive)	> 100 µM (inactive)	4.23 µM (inactive)	> 100 µM (inactive)	> 100 µM (inactive)	> 100 µM (inactive)	> 100 µM (inactive)	> 100 µM (inactive)	> 100 µM (inactive)	> 100 µM (inactive)	> 100 µM (inactive)	> 100 µM (inactive)	> 100 µM (inactive)
COc1nc2cccc(C(O)c3ccccc3)c2nc1-c1ccccc1 (stereo not given)	8.22 µM (inactive)	3.56 µM (inactive)	5.92 µM (inactive)	4.68 µM (inactive)	8.39 µM (inactive)	10.9 µM (inactive)	13.4 µM (inactive)	9.95 µM (inactive)	4.08 µM (inactive)	5.05 µM (inactive)	2.08 µM (inactive)	5.09 µM (inactive)	3.27 µM (inactive)	3.82 µM (inactive)	5.89 µM (inactive)	5.18 µM (inactive)	4.19 µM (inactive)	5.11 µM (inactive)	6.92 µM (inactive)	8.57 µM (inactive)
COc1cccc(N(CN2C(=O)CCC2C(=O)O)C(C)=O)c1 (stereo not given)	> 100 µM (inactive)	> 100 µM (inactive)	> 100 µM (inactive)	> 100 µM (inactive)	> 100 µM (inactive)	> 100 µM (inactive)	> 100 µM (inactive)	> 100 µM (inactive)	> 100 µM (inactive)	> 100 µM (inactive)	> 100 µM (inactive)	> 100 µM (inactive)	> 100 µM (inactive)	> 100 µM (inactive)	> 100 µM (inactive)	> 100 µM (inactive)	> 100 µM (inactive)	> 100 µM (inactive)	> 100 µM (inactive)	> 100 µM (inactive)
C1CC2=C(C1)[Se]C(=C1Sc3nsnc3S1)[Se]2	> 100 µM (inactive)	> 100 µM (inactive)	> 100 µM (inactive)	> 100 µM (inactive)	> 100 µM (inactive)	> 100 µM (inactive)	> 100 µM (inactive)	> 100 µM (inactive)	> 100 µM (inactive)	> 100 µM (inactive)	> 100 µM (inactive)	> 100 µM (inactive)	> 100 µM (inactive)	> 100 µM (inactive)	> 100 µM (inactive)	> 100 µM (inactive)	> 100 µM (inactive)	> 100 µM (inactive)	> 100 µM (inactive)	> 100 µM (inactive)
CCc1nc(N)nc(N)c1-c1ccc([N+](=O)[O-])c(NCc2ccccc2)c1	16.5 µM (inactive)	6.05 µM (inactive)	15.7 µM (inactive)	14.7 µM (inactive)	6.18 µM (inactive)	20 µM (inactive)	16.4 µM (inactive)	21.6 µM (inactive)	11.2 µM (inactive)	13.7 µM (inactive)	10.4 µM (inactive)	10.9 µM (inactive)	14.5 µM (inactive)	12.6 µM (inactive)	12.8 µM (inactive)	7.91 µM (inactive)	12.8 µM (inactive)	7.5 µM (inactive)	10.6 µM (inactive)	6.47 µM (inactive)
O=c1cc(-c2cc(O)c(O)c(-c3c(O)cc4oc(-c5ccc(O)c(O)c5)cc(=O)c4c3O)c2)oc2cc(O)cc(O)c12	> 25 µM (inactive)	> 25 µM (inactive)	> 25 µM (inactive)	> 25 µM (inactive)	> 25 µM (inactive)	> 25 µM (inactive)	> 25 µM (inactive)	> 25 µM (inactive)	> 25 µM (inactive)	> 25 µM (inactive)	> 25 µM (inactive)	> 25 µM (inactive)	> 25 µM (inactive)	> 25 µM (inactive)	> 25 µM (inactive)	> 25 µM (inactive)	19.2 µM (inactive)	> 25 µM (inactive)	> 25 µM (inactive)	11.3 µM (inactive)
CCCCn1c2c(n(CCCC)c1=S)-c1c(n(CCCC)c(=S)n1CCCC)S[Se][Se]S2	4.16 µM (inactive)	5.85 µM (inactive)	5.58 µM (inactive)	1.62 µM (inactive)	2.5 µM (inactive)	7.11 µM (inactive)	16.6 µM (inactive)	8.75 µM (inactive)	6.01 µM (inactive)	1.62 µM (inactive)	3.51 µM (inactive)	2.42 µM (inactive)	13.2 µM (inactive)	0.778 µM (active)	8.87 µM (inactive)	7.23 µM (inactive)	4.37 µM (inactive)	2.87 µM (inactive)	0.942 µM (active)	0.294 µM (active)
COc1cc(/C=C2\N=C(c3ccccc3)N(c3ccc(C(=O)c4ccccc4)cc3N3C(=O)/C(=C/c4cc(OC)c(OC)c(OC)c4)N=C3c3ccccc3)C2=O)cc(OC)c1OC	19.9 µM (inactive)	9.33 µM (inactive)	9.48 µM (inactive)	16.4 µM (inactive)	16 µM (inactive)	23.1 µM (inactive)	18.7 µM (inactive)	9.77 µM (inactive)	24.8 µM (inactive)	22.2 µM (inactive)	11.7 µM (inactive)	15.7 µM (inactive)	17.1 µM (inactive)	7.57 µM (inactive)	15.2 µM (inactive)	29.1 µM (inactive)	18.7 µM (inactive)	4.97 µM (inactive)	47.2 µM (inactive)	4.93 µM (inactive)

Source: ChEMBL document CHEMBL1201862, “PubChem BioAssay data set” (2004)
